From US20100021940A1, “Method for Determining the Activity of a Protease in a Sample” (ASTRAZENECA AB, priority 2006, published 2010)
Where “and” joins values, the source holds several entries; their conditions need not be identical. Equal values may be shown once.

Columns and labels:
MMP1 = target: T1, MMP1 (Homo sapiens, UniProt P03956); test: Activity of purified MMP on substrate (reporter release); format: biochemical
T1 sequence (P03956 100-469): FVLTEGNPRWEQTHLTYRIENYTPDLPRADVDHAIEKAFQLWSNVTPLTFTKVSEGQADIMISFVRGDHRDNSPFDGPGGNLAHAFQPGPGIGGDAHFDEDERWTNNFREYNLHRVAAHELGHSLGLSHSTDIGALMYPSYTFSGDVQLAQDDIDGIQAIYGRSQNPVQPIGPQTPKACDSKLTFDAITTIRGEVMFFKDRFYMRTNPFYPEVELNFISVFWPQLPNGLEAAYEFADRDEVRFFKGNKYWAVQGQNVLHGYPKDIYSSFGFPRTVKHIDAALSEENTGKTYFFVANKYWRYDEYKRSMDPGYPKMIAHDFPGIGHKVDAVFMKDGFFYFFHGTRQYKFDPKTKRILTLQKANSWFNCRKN
Excerpt: (§1) In order to confirm the specificity of the substrates for various MMPs, standard enzymatic assays were adapted to monitor the release of reporter. The reporter was either analysed by a LC-MS method as described in Example 3a, or by a LC-UV method as described in Example 4. A protocol for testing against other matrix metalloproteinases, including MMP9, using expressed and purified pro MMP is described, for instance, by C.

MMP3 = MMP3 (Homo sapiens, UniProt P08254); test: as above; format: biochemical
Chain of MMP3 (P08254 100-477): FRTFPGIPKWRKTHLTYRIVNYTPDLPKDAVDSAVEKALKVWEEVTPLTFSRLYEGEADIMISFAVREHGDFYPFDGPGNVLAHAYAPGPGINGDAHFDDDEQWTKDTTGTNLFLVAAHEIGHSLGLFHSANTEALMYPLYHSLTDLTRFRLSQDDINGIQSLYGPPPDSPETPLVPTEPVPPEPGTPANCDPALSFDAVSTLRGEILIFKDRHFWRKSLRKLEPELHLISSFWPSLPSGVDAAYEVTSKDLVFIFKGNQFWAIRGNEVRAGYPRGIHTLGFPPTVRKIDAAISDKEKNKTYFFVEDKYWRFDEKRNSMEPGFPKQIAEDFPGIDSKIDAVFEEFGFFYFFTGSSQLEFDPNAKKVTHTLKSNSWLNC
Excerpt: as §1

MMP9 = MMP9 activity in whole blood via 4-nitroaniline in plasma after zymosan stimulation (LC-MS); format: biochemical, human; conditions: for 4-nitroaniline concentration, Mean: group mean; for 4-nitroaniline concentration: individual subjects, substrate 10 μM in plasma, 37° C., 60 min
Experimental: Samples of heparinised whole blood (1 mL) were stimulated with Zymosan (0, 50, 300, 600, 900 and 1200 μg/mL), vortexed or and incubated at 37° C. for 15 minutes. Plasma was collected after centrifugation, mixed with the substrate (10 μM) and incubated at 37° C. for 60 minutes. Methanol (300 μL), with (^13C)6-4-nitroaniline (1 μM) as internal standard, was added to a 100 μL aliquot of the above mixture and centrifuged to remove precipitated proteins. The supernatant (100 μL) was diluted with water (100 μL) and the extracts was injected directly onto a HPLC column.
Thaw, as required, pooled control human plasma, quality control and test samples. Add methyl 1-acetyl-L-prolyl-L-leucylglycyl-α-R-(4-nitrophenylamino)-glycyl-L-leucyl-β-alaninate (2 μL, solution D) to test plasma sample (200 μL) in 2 mL screw cap microtubes and mix on a vortex mixer.
Incubate tubes for 60 minutes at 37° C. in a shaking water bath. Prepare the calibration samples in plasma as detailed in Table 1 during the 60 minute incubation of test samples in step 3. Mix the samples on a vortex mixer.
Manually dispense aliquots (100 μL) of each plasma sample into separate wells of a 96 deep-well 2 mL plate using an appropriate pipette. (Note: start pipetting calibration, quality control and blank samples approximately 10 minutes before the test samples have finished their incubation in step 3). Dispense internal standard in methanol (300 μL) into each well using the Tecan. Cover the plate with polystyrene cover. Centrifuge at 3000 rpm for 5 minutes at room temperature.
Transfer an aliquot (100 μL) of the sample supernatant into separate wells of a 96 deep-well 2 mL plate using the Tecan. Mix water (100 μL) with each sample in the wells of a 96 deep-well polypropylene plate using the Tecan. Cover plate with pre-spilt 96 well seal.
Analyse 10 μL aliquots by LC/MS.
Whole blood samples were stimulated with varying concentrations of zymosan (0, 50, 300, 600, 900 and 1200 μg/mL). Plasma sample obtained from the stimulated whole blood samples were mixed with the substrate methyl 1-acetyl-L-prolyl-L-leucylglycyl-α-R-(4-nitrophenylamino)-glycyl-L-leucyl-β-alaninate at a plasma concentration of 10 μM and the samples were then incubated at 37° C. for 60 minutes. Aliquots (100 μL) of the human plasma were mixed with methanol (300 μL) containing [^13C]6-4-nitroaniline as an internal standard to precipitate the proteins and the sample was centrifuged and supernatants (100 μL) were mixed with water (100 μL). The extracts 10 μL were injected directly onto a Phenomenex Luna phenyl-hexyl column (50×2.0 mm, 5 μm) and the compounds eluted with a gradient mobile phase consisting of 0.01% ammonia/methanol. 4-nitroaniline was resolved from endogenous plasma constituents and the HPLC effluent was directed into the mass spectrometer via a heated nebuliser interface in negative mode. 4-nitroaniline and [^13C]6-4-nitroaniline were detected using single ion monitoring of the [M-H]^− ions at the mass to charge ratio of m/z 137 and 143 respectively. The method is described above.
The method is validated over the range 0.0500 to 10.0 μM for 4-nitroaniline based on the analysis of a 100 μL plasma sample. Quality control samples at concentrations of 0.100, 2.00 and 8.00 μM 4-nitroaniline were included to determine the acceptability of each analysis batch. The limit of quantification (LOQ) of the method is 0.0500 μM 4-nitroaniline for a 100 μL aliquot of plasma.

[1] = healthy volunteers, visit 3, zymosan 0 μg
[2] = healthy volunteers, visit 3, zymosan 50 μg
[3] = healthy volunteers, visit 3, zymosan 300 μg
[4] = healthy volunteers, visit 3, zymosan 600 μg
[5] = healthy volunteers, visit 3, zymosan 900 μg
[6] = healthy volunteers, visit 3, zymosan 1200 μg
[7] = healthy volunteers, visit 4, zymosan 0 μg
[8] = healthy volunteers, visit 4, zymosan 50 μg
[9] = healthy volunteers, visit 4, zymosan 300 μg
[10] = healthy volunteers, visit 4, zymosan 600 μg
[11] = healthy volunteers, visit 4, zymosan 900 μg
[12] = healthy volunteers, visit 4, zymosan 1200 μg

COC(=O)CCNC(=O)[C@H](CC(C)C)NC(=O)[C@@H](NC(=O)CNC(=O)[C@H](CC(C)C)NC(=O)[C@@H]1CCCN1C(C)=O)Nc1ccc([N+](=O)[O-])cc1 [Example 1.1, Methyl 1-acetyl-L-prolyl-L-leucylglycyl-α-R-(4-nitrophenylamino)-glycyl-L-leucyl-β-alaninate]
Activity (MMP1; 30 μM substrate, MMP Conc. 9.3 nM, Calbiochem #444208): 0.16 units/s | Activity of selected substrates with MMPs (MMP1; Table 1b, MMP1): 26.1 units/s (molRXH/molEnz * s) | Activity (MMP3; 30 μM substrate, MMP Conc. 19 nM, AZL0095): 0.048 units/s | Activity of selected substrates with MMPs (MMP3; Table 1b, MMP3): 3.8 units/s (molRXH/molEnz * s) | 4-nitroaniline concentration, Mean (MMP9; COPD patients, visit 3, zymosan 0 μg): 0.128 µM | 4-nitroaniline concentration, Mean (MMP9; COPD patients, visit 3, zymosan 50 μg): 1.58 µM | 4-nitroaniline concentration, Mean (MMP9; COPD patients, visit 3, zymosan 300 μg): 3.56 µM | 4-nitroaniline concentration, Mean (MMP9; COPD patients, visit 3, zymosan 600 μg): 4.33 µM | 4-nitroaniline concentration, Mean (MMP9; COPD patients, visit 3, zymosan 900 μg): 4.77 µM | 4-nitroaniline concentration, Mean (MMP9; COPD patients, visit 3, zymosan 1200 μg): 4.68 µM | 4-nitroaniline concentration, Mean (MMP9; COPD patients, visit 4, zymosan 0 μg): 0.141 µM | 4-nitroaniline concentration, Mean (MMP9; COPD patients, visit 4, zymosan 50 μg): 1.51 µM | 4-nitroaniline concentration, Mean (MMP9; COPD patients, visit 4, zymosan 300 μg): 3.31 µM | 4-nitroaniline concentration, Mean (MMP9; COPD patients, visit 4, zymosan 600 μg): 4.03 µM | 4-nitroaniline concentration, Mean (MMP9; COPD patients, visit 4, zymosan 900 μg): 4.41 µM | 4-nitroaniline concentration, Mean (MMP9; COPD patients, visit 4, zymosan 1200 μg): 4.54 µM | 4-nitroaniline concentration, Mean (MMP9; [1]): 0.121 µM | 4-nitroaniline concentration (MMP9; [1]): 0.145 μM (2×) and 0.132 μM and 0.126 μM and 0.0917 μM and 0.124 μM and 0.104 μM and 0.0963 μM and 0.118 μM and 0.123 μM | 4-nitroaniline concentration, Mean (MMP9; [2]): 1.22 µM | 4-nitroaniline concentration (MMP9; [2]): 1.13 μM (2×) and 1.82 μM and 2.10 μM and 1.52 μM and 0.988 μM and 0.836 μM and 0.878 μM and 0.646 μM and 1.16 μM | 4-nitroaniline concentration, Mean (MMP9; [3]): 2.82 µM | 4-nitroaniline concentration (MMP9; [3]): 2.48 µM and 3.68 µM and 2.65 µM and 4.32 µM and 3.63 µM and 2.82 µM and 2.31 µM and 2.42 µM and 1.56 µM and 2.28 µM | 4-nitroaniline concentration, Mean (MMP9; [4]): 3.36 µM | 4-nitroaniline concentration (MMP9; [4]): 3.00 µM and 4.26 µM and 2.98 µM and 4.39 µM and 4.23 µM and 3.90 µM and 3.08 µM and 2.99 µM and 1.84 µM and 2.95 µM | 4-nitroaniline concentration, Mean (MMP9; [5]): 3.52 µM | 4-nitroaniline concentration (MMP9; [5]): 3.05 µM and 4.50 µM and 3.14 µM and 4.38 µM and 4.24 µM and 3.98 µM and 3.45 µM and 3.35 µM and 2.07 µM and 2.99 µM | 4-nitroaniline concentration, Mean (MMP9; [6]): 3.59 µM | 4-nitroaniline concentration (MMP9; [6]): 3.07 µM and 4.53 µM and 2.99 µM and 4.28 µM and 4.45 µM and 4.41 µM and 3.53 µM and 3.50 µM and 2.14 µM and 3.02 µM | 4-nitroaniline concentration, Mean (MMP9; [7]): 0.131 µM | 4-nitroaniline concentration (MMP9; [7]): 0.154 µM and 0.192 µM and 0.106 µM and 0.0977 µM and 0.130 µM and 0.199 µM and 0.0803 µM | 4-nitroaniline concentration, Mean (MMP9; [8]): 0.986 µM | 4-nitroaniline concentration (MMP9; [8]): 1.49 µM and 2.11 µM and 0.808 µM and 0.616 µM and 0.732 µM and 0.795 µM and 0.758 µM | 4-nitroaniline concentration, Mean (MMP9; [9]): 2.39 µM | 4-nitroaniline concentration (MMP9; [9]): 2.81 µM and 4.29 µM and 1.92 µM and 1.68 µM and 1.98 µM and 2.29 µM and 2.22 µM | 4-nitroaniline concentration, Mean (MMP9; [10]): 2.84 µM | 4-nitroaniline concentration (MMP9; [10]): 3.17 µM and 4.36 µM and 2.39 µM and 2.12 µM and 2.41 µM and 3.36 µM | 4-nitroaniline concentration, Mean (MMP9; [11]): 3.26 µM | 4-nitroaniline concentration (MMP9; [11]): 3.27 μM and 5.53 μM and 2.69 μM and 2.46 μM and 3.03 μM and 3.48 μM (2×) | 4-nitroaniline concentration, Mean (MMP9; [12]): 3.39 µM | 4-nitroaniline concentration (MMP9; [12]): 3.32 µM and 5.28 µM and 2.84 µM and 2.85 µM and 3.15 µM and 4.00 µM | 4-nitroaniline concentration, Mean (MMP9; smokers, visit 3, zymosan 0 μg): 0.149 µM | 4-nitroaniline concentration, Mean (MMP9; smokers, visit 3, zymosan 50 μg): 1.45 µM | 4-nitroaniline concentration, Mean (MMP9; smokers, visit 3, zymosan 300 μg): 3.35 µM | 4-nitroaniline concentration, Mean (MMP9; smokers, visit 3, zymosan 600 μg): 4.10 µM | 4-nitroaniline concentration, Mean (MMP9; smokers, visit 3, zymosan 900 μg): 4.45 µM | 4-nitroaniline concentration, Mean (MMP9; smokers, visit 3, zymosan 1200 μg): 4.47 µM | 4-nitroaniline concentration, Mean (MMP9; smokers, visit 4, zymosan 0 μg): 0.142 µM | 4-nitroaniline concentration, Mean (MMP9; smokers, visit 4, zymosan 50 μg): 1.66 µM | 4-nitroaniline concentration, Mean (MMP9; smokers, visit 4, zymosan 300 μg): 3.32 µM | 4-nitroaniline concentration, Mean (MMP9; smokers, visit 4, zymosan 600 μg): 3.76 µM | 4-nitroaniline concentration, Mean (MMP9; smokers, visit 4, zymosan 900 μg): 4.19 µM | 4-nitroaniline concentration, Mean (MMP9; smokers, visit 4, zymosan 1200 μg): 4.41 µM
